# What was measured:
# [1] = system: Penicillium discolor; test: Penicillium discolor rot on wounded apples cv Gala; assay type: in vivo; details: rot surface area vs untreated control, phosphite 16 mM, natamycin 100 ppm
# Procedure: Tested fruit: apples cv Gala from organic origin/SKAL certified. SKAL is a semi-governmental Dutch organization that controls organic production in the Netherlands. Wounds of the apples were checked at day 3. All phosphite concentrations were tested at a concentration of 16 mM of phosphonate. Natamycin (95%, Freda) solo and in combination was tested at a concentration of 100 ppm. […] Used pathogen: Penicillium discolor spore-suspension containing 4*10E6 spores/ml. Application: The fruit peel of the apple was damaged with a cork borer, ø4 mm and depth ˜0.5 cm into the fruit, with 2 wounds per apple. 40 microliter of a freshly prepared spore suspension of P. discolor was applied by pipette onto each wound. Subsequently, the spore-suspension was allowed to air-dry for 4 hours. Then, 50 microliter of a treatment as presented in the list above was applied by pipette to each wound. All fruits were kept at room temperature (20° C.). Wounds of the apples were checked after 4, 7 and 9 days of incubation. The efficacy is calculated by measuring the surface area (square mm) of the rot on the apples, and compared to the untreated control (see Table 4). Replicates: All treatments for the apple experiment were performed on six individual apples with two wounds each resulting in 12 wounds per treatment.
# [2] = system: Botrytis cinerea; test: Botrytis cinerea rot on wounded apple and banana fruit; assay type: in vivo; design: key: Different results are indicated by different letters; Different results are indicated by different letters; Different results are indicated by different letters; Different results are indicated by different letters; Different results are indicated by different letters
# Text: Tested fruit: apple (cv Elstar) and a banana (cv Cavendish) from organic origin/SKAL certified. SKAL is a semi-governmental Dutch organization that controls organic production in the Netherlands.
# Used pathogen: Botrytis cinerea spore-suspension containing ˜3×10^5 propagules (spores)/ml.
# Application: Fruit peel was damaged with a cork borer, depth ˜0.5 cm into the fruit, 2 wounds per apple fruit; 2 wounds per banana fruit. 30 microliters of a freshly prepared spore suspension of B. cinerea (estimated 3×10^5 spores/ml) were applied by pipette onto each wound. Subsequently, the spore-suspension was allowed to air-dry for 3 hours. 50 microliters of fungicide suspensions 1-6 were applied by pipette to each wound.
# All fruits were kept at room temperature (20° C.).
# Replicates: All treatments (1-6) were performed on 6 individual apples and 6 individual bananas with 2 wounds each resulting in 12 wounds per fruit per treatment. The recorded observed antifungal activity is the reduction (in percentages) of the average surface of the rot as observed in the 12 wounds compared to the rot surface of the untreated control.
# Observation: All wounds were inspected daily for visual symptoms of fruit rot and/or fungus growth. Rot surface was determined after 5 and 7 days (see Tables 1, 2 and 3). The recorded observed antifungal activity is the surface of the rot.
smiles,measurement,setting,value
"C[C@@H]1C/C=C/C=C/C=C/C=C/[C@H](OC2O[C@H](C)[C@@H](O)[C@H](N)[C@@H]2O)C[C@@H]2O[C@](O)(C[C@@H](O)C[C@H]3O[C@@H]3/C=C/C(=O)O1)C[C@H](O)[C@H]2C(=O)O (stereo partly drawn) [Natamycin, (1R,3S,5R,7R, 8E,12R,14E,16E,18E,20E,22R,24S,25R,26S)-22-[(3-amino-3,6-dideoxy-D-mannopyranosyl)oxy]-1,3,26-trihydroxy-12-methyl-10-oxo-6,11,28-trioxatricyclo[22.3.1.05,7]octacosa-8,14,16,18,20-pentaene-25-carboxylic acid]",Efficacy (%),[1]; Day 4,23%
same,Efficacy (%),[1]; Day 7,10%
same,Efficacy (%),[1]; Day 9,9%
"C#CCOc1ccc(CCNC(=O)C(OCC#C)c2ccc(Cl)cc2)cc1OC (racemic) [mandipropamid, (RS)-2-(4-chloorfenyl)-N-[3-methoxy-4-(prop-2-ynyloxy)fenethyl]-2-(prop-2-ynyloxy)acetamide]",Effect on fungicidal attack of Botrytis on apple and banana,"[2]; Table 1, phosphonate Control, mandipropamid 1/16 label",e
same,Effect on fungicidal attack of Botrytis on apple and banana,"[2]; Table 1, phosphonate Control, mandipropamid ¼ label",e
same,Effect on fungicidal attack of Botrytis on apple and banana,"[2]; Table 1, phosphonate Control, mandipropamid ½ label",d
same,Effect on fungicidal attack of Botrytis on apple and banana,"[2]; Table 1, phosphonate Control, mandipropamid ⅛ label",e
same,Effect on fungicidal attack of Botrytis on apple and banana,"[2]; Table 3, Na2HPO3 part, phosphonate Control, mandipropamid ¼ label",d
same,Effect on fungicidal attack of Botrytis on apple and banana,"[2]; Table 3, Na2HPO3 part, phosphonate Control, mandipropamid ⅛ label",e
same,Effect on fungicidal attack of Botrytis on apple and banana,"[2]; Table 3, NaH2PO3 part, phosphonate Control, mandipropamid ¼ label",e
same,Effect on fungicidal attack of Botrytis on apple and banana,"[2]; Table 3, NaH2PO3 part, phosphonate Control, mandipropamid ½ label",d
"O=[PH]([O-])O.[Na+] [NaH2PO3, monosodium dihydrogen phosphite]",Effect on fungicidal attack of Botrytis on apple and banana,"[2]; Table 3, NaH2PO3 part, Concentration 1, mandipropamid control",d
same,Effect on fungicidal attack of Botrytis on apple and banana,"[2]; Table 3, NaH2PO3 part, Concentration 2, mandipropamid control",c
same,Effect on fungicidal attack of Botrytis on apple and banana,"[2]; Table 3, NaH2PO3 part, Concentration 3, mandipropamid control",b
"COCC(=O)N(c1c(C)cccc1C)C(C)C(=O)OC (racemic) [mefenoxam, methyl N-(methoxyacetyl)-N-(2,6-xylyl)-DL-alaninate]",Effect on fungicidal attack of Botrytis on apple and banana,"[2]; Table 2, phosphonate Control, mefenoxam ¼ label",e

# Reference: US20190254285A1, “SODIUM PHOSPHITE COMBINATIONS” (priority 2016, published 2019)
